{"source": "patent US6878514B1", "about": "“Methods for identifying agents that inhibit serum aging factors and uses and compositions thereof” (Purdue Research Foundation, priority 1999, dated 2005)", "key": {"[1]": {"target": "T1, NOX (NADH oxidase / ubiquinol oxidase) from HeLa cells (Homo sapiens, UniProt Q16206)", "T1 construct": "other: HeLa NOX preparation; other: NOX partially purified from surface of HeLa cells", "T1 sequence (Q16206 1-610)": "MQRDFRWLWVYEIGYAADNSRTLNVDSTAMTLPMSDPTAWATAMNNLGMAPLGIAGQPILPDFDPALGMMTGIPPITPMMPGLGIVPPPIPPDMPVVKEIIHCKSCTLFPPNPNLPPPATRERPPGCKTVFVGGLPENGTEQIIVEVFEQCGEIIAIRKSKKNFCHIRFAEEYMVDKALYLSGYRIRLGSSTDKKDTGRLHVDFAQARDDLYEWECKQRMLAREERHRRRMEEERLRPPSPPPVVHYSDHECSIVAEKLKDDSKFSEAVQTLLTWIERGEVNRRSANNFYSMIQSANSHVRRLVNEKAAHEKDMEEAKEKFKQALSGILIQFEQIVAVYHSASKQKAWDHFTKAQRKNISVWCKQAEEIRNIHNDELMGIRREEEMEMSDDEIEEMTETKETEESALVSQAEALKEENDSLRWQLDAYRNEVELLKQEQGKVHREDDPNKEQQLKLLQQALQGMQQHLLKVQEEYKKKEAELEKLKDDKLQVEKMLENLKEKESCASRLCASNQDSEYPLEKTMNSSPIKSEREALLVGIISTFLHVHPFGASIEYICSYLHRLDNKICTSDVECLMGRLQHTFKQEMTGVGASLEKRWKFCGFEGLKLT", "details": "NOX partially purified from surface of HeLa cells; cited from earlier work"}, "[2]": {"target": "T1, NOX (NADH oxidase / ubiquinol oxidase) from HeLa cells", "test": "NOX-catalyzed oxidation of ubiquinol (preparation solubilized from HeLa cells)", "format": "biochemical", "details": "HeLa NOX preparation; for EC50: read-out: EC50 inhibition of NOX-catalyzed oxidation of ubiquinol", "procedure": "(§1) FIG. 1. Oxidation of reduced ubiquinol at 37° C. by an enzymatic preparation with NADH oxidase activity solubilized from HeLa cells by low pH treatmnent, followed by heat and proteinase K. The disappearance of reduced ubiquinol was determined from the increase in absorbance at 410 nm as a function of time in the presence of 1 mg of the HeLa protein. The concentration of quinol was 50 mM, pH 7.\n(§2) Ubiquinol oxidation was estimated based on increase in absorbance at 410 nm for ubiquinone (FIG. 1)."}, "[3]": {"tested_on": "AR-NOX in sera", "test": "Cytochrome c reduction by sera and inhibition by SOD or ubiquinone (Q10)", "format": "biochemical, human", "procedure": "(§3) The generation of superoxide radical was determined by assaying the rate of superoxide dismutase (SOD)-inhibitable cytochrome c reduction (Mayo and Curnette, 1990, Meth Enzymol. 186:567-575 and Butler et al., 1982, J. Biol. Chem. 257:10747-10750). The cytochrome c was from horse heart mitochondria (type VI, Sigma) and was dissolved in PBSG buffer (see below) to make a solution with a concentration of 1 mg/ml. Air-saturated reaction mixtures of […] cytochrome c stock solution and […] of a cell suspension (suspended in PBSG buffer) to give a final concentration of ˜5×10^6 cells/ml were added to 2 ml of PBSG buffer (138 mM NaCl, 2.7 mM KCl, 8.1 mM Na2HHPO4, pH 7.4 supplemented with 0.9 mM CaCl2, and 7.5 mM glucose and contained in plastic cuvettes. The formation of reduced cytochrome c was measured in the presence and absence of SOD (15 mg, Sigma) or capsaicin (2.5 mM) by comparing the absorbance of the mixture at 550 nm-540 nm. Superoxide formation was stimulated by using a handheld UV light (254 nm, 200 mw/cm^2). The extent of cytochrome c reduction was monitored spectrophotometrically at 550 nm every ten sec with gentle mixing between readings. Data were analyzed from the slope of the change in a 550 nm-540 nm before and after UV and then again after SOD or capsaicin was added. Data were expressed as nmoles O2[…]/10^6 cells using a value of SM550nm=19.1×10^3 M^−1 cm^−1.\nCytochrome c reduction by sera was assayed as for cells except that the samples were not mixed in between readings. The Q10 was added as an ethanolic solution.\nSera were obtained from the patient population of St. Elizabeth Hospital, Lafayette, Ind. and the resident population of St. Anthony's Health Care, Lafayette, Ind. Confidentiality of medical records was assured by assigning a number to each sample."}, "[4]": {"tested_on": "T2, NOX (NADH oxidase / ubiquinol oxidase) from HeLa cells", "T2 construct": "rows headed: Km for quinol; other: substrate of NOX-catalyzed oxidation; Response of NOX-catalyzed oxidation of ubiquinol to agent; other: HeLa NOX preparation; Km for reduced Q10H2; other: NOX partially purified from surface of HeLa cells", "details": "read-out: Km for reduced Q10H2; NOX partially purified from surface of HeLa cells; heading: Km for reduced Q10H2; cited from earlier work"}, "[5]": {"tested_on": "T2, NOX (NADH oxidase / ubiquinol oxidase) from HeLa cells", "test": "NOX-catalyzed oxidation of ubiquinol (preparation solubilized from HeLa cells)", "format": "biochemical, human", "details": "read-out: Km for quinol; substrate of NOX-catalyzed oxidation; heading: Km for quinol", "procedure": "as §1, §2"}, "[6]": {"tested_on": "BT-20", "test": "UV-induced superoxide production (cytochrome c reduction) by BT-20 cells", "format": "cell-based, human", "procedure": "as §3"}, "[7]": {"tested_on": "MCF 10A", "test": "UV-induced superoxide production (cytochrome c reduction) by MCF 10A cells", "format": "cell-based, human", "procedure": "as §3"}, "[8]": {"target": "T3, partially-purified preparation of the oxidase from HeLa cells (Homo sapiens, UniProt Q16206)", "T3 construct": "endogenous in cells; host or cells: HeLa", "T3 sequence (Q16206 1-610)": "T1 sequence (Q16206 1-610)", "test": "UV-induced superoxide generation by partially-purified oxidase from HeLa cells", "format": "biochemical"}, "[9]": {"tested_on": "HeLa S", "test": "UV-induced superoxide production (cytochrome c reduction) by HeLa S cells", "format": "cell-based, human", "procedure": "as §3"}}, "note": "Where two headings read alike, the source gives them in different places.", "data": [{"smiles": "Cc1ccc(S(=O)(=O)NC(=O)Nc2ccc(Cl)cc2)cc1", "note": "[LY181984, N-(4-methylphenylsulfonyl)-N′-(4-chlorophenyl)urea]", "values": [{"measurement": "Inhibition of ubiquinol oxidase activity", "setting": "[1]", "result": "inhibited competitively"}, {"measurement": "Type of inhibition of NOX-catalyzed oxidation of ubiquinol", "setting": "[2]", "result": "competitive"}, {"measurement": "EC50", "setting": "[2]", "result": 30, "unit": "nM"}]}, {"smiles": "COC1=C(OC)C(=O)C(C/C=C(\\C)CC/C=C(\\C)CC/C=C(\\C)CC/C=C(\\C)CC/C=C(\\C)CC/C=C(\\C)CC/C=C(\\C)CC/C=C(\\C)CC/C=C(\\C)CCC=C(C)C)=C(C)C1=O", "note": "[Q10]", "values": [{"measurement": "Effect on superoxide-generating, aging-related enzymatic activity of sera", "setting": "[3]; 0.1 mM coenzyme Q, sera of elderly individuals 80-94 years", "result": "substantially reduced"}, {"measurement": "Inhibition of reduction of cytochrome c by sera of aged patients, on average", "setting": "[3]; sera of aged patients, average", "result": 36, "unit": "%"}, {"measurement": "Reduction of cytochrome c by sera, + 45 mg Q10", "setting": "[3]; sera of individuals 83-95 years (n = 5)", "result": "2.5 ± 1.4", "unit": "nmoles/min/ml/sera"}]}, {"smiles": "COc1c(O)c(C)c(C/C=C(\\C)CC/C=C(\\C)CC/C=C(\\C)CC/C=C(\\C)CC/C=C(\\C)CC/C=C(\\C)CC/C=C(\\C)CC/C=C(\\C)CC/C=C(\\C)CCC=C(C)C)c(O)c1OC", "note": "[quinol]", "values": [{"measurement": "Km", "setting": "[4]", "result": 30, "unit": "µM"}, {"measurement": "Km", "setting": "[5]", "result": 33, "unit": "µM"}]}, {"smiles": "COc1cc(CNC(=O)CCCC/C=C/C(C)C)ccc1O", "note": "[capsaicin, 8-methyl-N-vanillyl-6-noneamide]", "values": [{"measurement": "Effect on response to UV (superoxide generation)", "setting": "[6]", "result": "inhibited"}, {"measurement": "Reduction of cytochrome c as a measure of superoxide formation, After UV, + Capsaicin", "setting": "[6]; 10 minutes of 254 nm UV, 2.5 mM capsaicin in DMSO, corrected for DMSO blank", "result": "−3.7", "unit": "nmoles/min/10^6 cells"}, {"measurement": "Inhibition of ubiquinol oxidase activity", "setting": "[1]", "result": "inhibited competitively"}, {"measurement": "Effect on UV-induced generation of superoxide", "setting": "[7]; MCF10A", "result": "unaffected"}, {"measurement": "Reduction of cytochrome c as a measure of superoxide formation, After UV, + Capsaicin", "setting": "[7]; MCF 10A, 10 minutes of 254 nm UV, 2.5 mM capsaicin in DMSO, corrected for DMSO blank", "result": 7.2, "unit": "nmoles/min/10^6 cells"}, {"measurement": "Effect on UV-induced superoxide generation by partially-purified oxidase", "setting": "[8]", "result": "inhibited"}, {"measurement": "Effect on response to UV (superoxide generation)", "setting": "[9]; HeLa", "result": "inhibited"}, {"measurement": "Reduction of cytochrome c as a measure of superoxide formation, After UV, + Capsaicin", "setting": "[9]; HeLa S, 10 minutes of 254 nm UV, 2.5 mM capsaicin in DMSO, corrected for DMSO blank", "result": 0.8, "unit": "nmoles/min/10^6 cells"}, {"measurement": "Type of inhibition of NOX-catalyzed oxidation of ubiquinol", "setting": "[2]", "result": "competitive"}, {"measurement": "EC50", "setting": "[2]", "result": 1, "unit": "nM"}]}]}
